Data from the supplement of paper PMC10307832.

What was measured:
Assay in all cases: relative viability (nuclei count vs DMSO), 5 days (fraction); higher = more cells survive
[1] = compound: C1CC1C(=O)NC2=NNC3=C2C=CC(=C3)C4=CC(=CC=C4)C(=O)NC5CC5 [XMD13-2] + CS(=O)(=O)N1CCN(Cc2cc3nc(-c4cccc5[nH]ncc45)nc(N4CCOCC4)c3s2)CC1 [Pictilisib] (partner 1 µM)
Method in brief: (§1)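 A single step with final 0.05% Triton X-100, 1% formaldehyde and 1 ug/ml Hoechst fixed the cells and stained nuclei 5 days after treatment. Lung cancer cell lines in 1536-well plates had been treated by pin tool the day after seeding with one drug alone or a fixed anchor-drug dose plus five library-drug doses (not always all listed) in √10 steps, and nuclei were counted on 4× images. Relative viability is the ratio of nuclei in treated wells to nuclei in vehicle wells, taken as the median of duplicate plates.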

[2] = compound: C1CC1C(=O)NC2=NNC3=C2C=CC(=C3)C4=CC(=CC=C4)C(=O)NC5CC5 [XMD13-2] + Nc1nc2[nH]cc(CCc3ccc(C(=O)N[C@@H](CCC(=O)O)C(=O)O)cc3)c2c(=O)[nH]1 [Pemetrexed] (partner 0.2 µM)
Method in brief: as §1

[3] = compound: Cc1nc(Nc2ncc(C(=O)Nc3c(C)cccc3Cl)s2)cc(N2CCN(CCO)CC2)n1 [Dasatinib] + COc1cc2c(Oc3ccc(NC(=O)C4(C(=O)Nc5ccc(F)cc5)CC4)cc3F)ccnc2cc1OCCCN1CCOCC1 [Foretinib] (partner 0.25 µM)
Method in brief: as §1

[4] = compound: Cc1nc(Nc2ncc(C(=O)Nc3c(C)cccc3Cl)s2)cc(N2CCN(CCO)CC2)n1 [Dasatinib] + C[C@@H](Oc1cc(-c2cnn(C3CCNCC3)c2)cnc1N)c1c(Cl)ccc(F)c1Cl [Crizotinib] (partner 1 µM)
Method in brief: as §1

Row | Cell Line | relative viability ([1]; first compound 0.05 µM) | relative viability ([1]; first compound 0.1581 µM) | relative viability ([1]; first compound 0.5 µM) | relative viability ([1]; first compound 1.581 µM) | relative viability ([1]; first compound 5 µM) | relative viability ([2]; first compound 0.05 µM) | relative viability ([2]; first compound 0.1581 µM) | relative viability ([2]; first compound 0.5 µM) | relative viability ([2]; first compound 1.581 µM) | relative viability ([2]; first compound 5 µM) | relative viability ([3]; first compound 0.005 µM) | relative viability ([3]; first compound 0.01581 µM) | relative viability ([3]; first compound 0.05 µM) | relative viability ([3]; first compound 0.1581 µM) | relative viability ([3]; first compound 0.5 µM) | relative viability ([4]; first compound 0.005 µM) | relative viability ([4]; first compound 0.01581 µM) | relative viability ([4]; first compound 0.05 µM) | relative viability ([4]; first compound 0.1581 µM) | relative viability ([4]; first compound 0.5 µM)
1 | 201T | 0.747 | 0.72 | 0.639 | 0.673 | 0.719 | 0.372 | 0.309 | 0.384 | 0.329 | 0.364 | 0.945 | 0.883 | 0.816 | 0.531 | 0.346 | 0.972 | 0.947 | 0.933 | 0.729 | 0.458
2 | A549 | 0.677 | 0.508 | 0.565 | 0.477 | 0.504 |  |  |  |  |  | 0.876 | 0.817 | 0.59 | 0.3 | 0.119 | 0.563 | 0.642 | 0.415 | 0.264 | 0.131
3 | A-427 | 0.871 | 0.732 | 0.797 | 0.537 | 0.558 | 1.04 | 0.922 | 0.995 |  | 0.82 | 0.971 | 1.04 | 0.974 | 0.694 | 0.599 | 0.761 | 0.719 | 0.701 | 0.495 | 0.442
4 | ABC-1 | 0.946 | 0.744 | 0.706 | 0.791 | 0.3 |  |  |  |  |  | 1.08 | 0.906 | 0.948 | 0.692 | 0.487 | 0.929 | 0.856 | 0.699 | 0.586 | 0.367
5 | BEN | 0.663 | 0.535 | 0.585 | 0.562 | 0.523 | 0.876 | 0.858 | 0.734 | 0.641 | 0.803 | 0.682 | 0.513 | 0.35 | 0.366 | 0.291 | 0.706 | 0.397 | 0.493 | 0.378 | 0.332
6 | CAL-12T | 0.531 |  | 0.339 | 0.327 | 0.371 | 1.27 | 1.1 | 1.25 | 1.11 | 1.23 | 1.18 | 1.04 | 1.23 | 0.66 | 0.532 | 0.86 | 0.627 | 0.457 | 0.128 | 0.0903
7 | COR-L23 | 0.8 | 0.72 | 0.857 | 0.818 | 0.64 | 0.197 | 0.194 | 0.204 | 0.218 | 0.197 | 0.915 | 0.904 | 0.829 | 0.535 | 0.549 | 0.514 | 0.5 | 0.35 | 0.234 | 0.267
8 | COR-L 105 | 0.398 | 0.361 | 0.437 | 0.458 | 0.335 | 1.01 | 1.26 | 1.04 | 0.98 | 1.26 | 0.786 | 0.955 | 0.64 | 0.377 | 0.264 | 0.71 | 0.59 | 0.528 | 0.286 | 0.285
9 | Calu-6 | 1.09 | 0.92 | 0.909 | 0.757 | 0.439 |  |  |  |  |  | 0.738 | 0.702 | 0.633 | 0.513 | 0.469 | 0.701 | 0.618 | 0.519 | 0.341 | 0.344
10 | ChaGo-K-1 | 0.82 | 0.631 | 0.461 |  | 0.599 | 0.255 | 0.267 | 0.259 | 0.253 | 0.264 | 0.922 | 0.881 | 0.874 | 0.725 | 0.667 | 1.14 | 1.02 | 1 | 0.862 | 0.734
11 | EBC-1 | 0.395 | 0.431 | 0.377 | 0.287 | 0.142 |  |  |  |  |  | 0.106 |  | 0.0991 | 0.121 | 0.0976 | 0.203 | 0.187 | 0.205 | 0.183 | 0.172
12 | EKVX | 0.476 | 0.401 | 0.434 | 0.42 | 0.388 | 0.457 | 0.324 | 0.432 |  | 0.428 | 0.757 | 0.84 | 0.753 | 0.455 | 0.135 | 0.994 | 0.633 | 0.528 | 0.314 | 0.138
13 | EMC-BAC-2 | 0.596 | 0.497 | 0.531 | 0.505 | 0.413 | 0.42 | 0.451 | 0.431 | 0.457 | 0.494 | 0.862 | 0.733 | 0.573 | 0.297 | 0.242 | 0.754 | 0.516 | 0.425 | 0.247 | 0.221
14 | EPLC-272H | 0.349 | 0.271 | 0.271 | 0.23 | 0.187 | 0.345 | 0.31 | 0.247 | 0.254 | 0.168 | 0.769 | 0.631 | 0.634 | 0.214 | 0.127 | 0.99 | 0.765 | 0.787 | 0.537 | 0.326
15 | H3255 | 0.589 | 0.525 | 0.485 | 0.526 | 0.445 | 0.618 | 0.546 | 0.579 | 0.611 | 0.625 | 1.02 | 0.822 | 0.726 | 0.944 | 0.352 | 0.901 | 0.757 | 0.617 | 0.557 | 0.27
16 | HARA | 0.372 | 0.394 | 0.493 | 0.314 | 0.23 | 0.224 | 0.273 | 0.269 | 0.208 | 0.323 | 0.826 | 0.504 | 0.541 | 0.207 | 0.136 | 1.08 | 0.754 | 0.71 | 0.261 | 0.133
17 | HCC-15 | 0.766 | 0.721 | 0.778 | 0.712 | 0.467 | 0.237 | 0.204 | 0.218 | 0.224 | 0.214 | 1.09 | 0.919 | 0.876 | 0.719 | 0.57 | 0.873 | 0.699 | 0.743 | 0.514 | 0.489
